Measurements as given in patent publication US7799814B2, “Thiazole derivatives and use thereof” (Merck Serono S.A., priority 2005, dated 2010).

What follows are compounds tested against Human recombinant GST-PI3Kγ (Homo sapiens, UniProt P48736) (assay: High Throughput PI3K Lipid Kinase Assay (scintillation proximity assay, neomycin-coated SPA beads)). Settings: not given.
Assay type: biochemical
Source text: a) High Throughput PI3K Lipid Kinase Assay (Binding Assay):
The efficacy of compounds of the invention in inhibiting the PI3K induced-lipid phosphorylation may be tested in the following binding assay.
The assay combines the scintillation proximity assay technology (SPA, Amersham) with the capacity of neomycin (a polycationic antibiotic) to bind phospholipids with high affinity and specificity. The Scintillation Proximity Assay is based on the properties of weakly emitting isotopes (such as ^3H, ^125I, ^33P). Coating SPA beads with neomycin allows the detection of phosphorylated lipid substrates after incubation with recombinant PI3K and radioactive ATP in the same well, by capturing the radioactive phospholipids to the SPA beads through their specific binding to neomycin.
To a 384 wells MTP containing 5 μl of the test compound of Formula (I) (solubilized in 6% DMSO; to yield a concentration of 100, 30, 10, 3, 1, 0.3, 0.1, 0.03, 0.01, 01 μM of the test compound), the following assay components are added. 1) 5 μl (58 ng) of Human recombinant GST-PI3Kγ (in Hepes 40 mM, pH 7.4, DTT 1 mM and ethylenglycol 5%) 2) 10 μl of lipid micelles and 3) 10 μl of Kinase buffer ([^33P]γ ATP. 45 μM/60 nCi, MgCl mM, DTT 1 mM, β Glycerophosphate 1 mM, NVO4 100 μM, Na Cholate 0.3%, in Hepes 40 mM, pH 7.4). After incubation at room temperature for 180 minutes, with gentle agitation, the reaction is stopped by addition of 60 μl of a solution containing 100 μg of neomycin-coated PVT SPA beads in PBS containing ATP 10 mM and EDTA 5 mM. The assay is further incubated at room temperature for 60 minutes with gentle agitation to allow binding of phospholipids to neomycin-SPA beads. After precipitation of the neomycin-coated PVT SPA beads for 5 minutes at 1500×g, radioactive PtdIns(3)P is quantified by scintillation counting in a Wallac MicroBeta™ plate counter.
The values indicated in Table I below refer to the IC50 (μM) with respect to PI3Kγ, i.e. the amount necessary to achieve 50% inhibition of said target. Said values show a considerable inhibitory potency of thiazole compounds with regard to PI3Kγ.

Chain of Human recombinant GST-PI3Kγ (P48736 whole entry): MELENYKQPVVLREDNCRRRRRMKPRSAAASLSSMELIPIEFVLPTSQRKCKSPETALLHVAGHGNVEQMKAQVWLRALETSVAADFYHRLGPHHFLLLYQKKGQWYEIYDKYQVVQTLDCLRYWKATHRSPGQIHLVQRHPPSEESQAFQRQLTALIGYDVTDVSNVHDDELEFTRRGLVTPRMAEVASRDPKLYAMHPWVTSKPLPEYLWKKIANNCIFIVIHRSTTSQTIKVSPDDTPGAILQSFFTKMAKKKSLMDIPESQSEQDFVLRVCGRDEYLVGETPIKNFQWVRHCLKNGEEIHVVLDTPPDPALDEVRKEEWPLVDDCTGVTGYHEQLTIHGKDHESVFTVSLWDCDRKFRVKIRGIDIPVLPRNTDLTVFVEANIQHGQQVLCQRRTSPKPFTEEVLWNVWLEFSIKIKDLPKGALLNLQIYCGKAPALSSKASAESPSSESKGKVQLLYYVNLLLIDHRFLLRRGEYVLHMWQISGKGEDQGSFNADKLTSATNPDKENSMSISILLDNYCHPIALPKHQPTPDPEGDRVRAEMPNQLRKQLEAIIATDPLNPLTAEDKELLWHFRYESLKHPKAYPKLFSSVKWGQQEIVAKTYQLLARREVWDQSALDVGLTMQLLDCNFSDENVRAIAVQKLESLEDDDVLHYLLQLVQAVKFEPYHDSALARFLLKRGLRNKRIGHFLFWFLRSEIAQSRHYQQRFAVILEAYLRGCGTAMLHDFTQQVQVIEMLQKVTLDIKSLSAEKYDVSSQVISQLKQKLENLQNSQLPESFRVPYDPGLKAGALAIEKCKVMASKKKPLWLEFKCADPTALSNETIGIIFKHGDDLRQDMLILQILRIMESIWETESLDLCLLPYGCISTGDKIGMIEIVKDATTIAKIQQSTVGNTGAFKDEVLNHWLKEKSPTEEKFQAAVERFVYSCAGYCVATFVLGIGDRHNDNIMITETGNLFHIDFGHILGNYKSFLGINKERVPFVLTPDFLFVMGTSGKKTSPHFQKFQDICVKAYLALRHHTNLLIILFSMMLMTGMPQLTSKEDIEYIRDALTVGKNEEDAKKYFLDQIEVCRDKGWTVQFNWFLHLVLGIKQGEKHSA

Row | IC50 [nM] | SMILES
1 | 186 | CC(=O)Nc1nc(C)c(-c2csc(C(=O)N3CCOCC3)n2)s1 [Example 8, N-[4′-methyl-2-(morpholin-4-ylcarbonyl)-4,5′-bi-1,3-thiazol-2′-yl]acetamide]
2 | 494 | CC(=O)Nc1nc(C)c(-c2csc(C(=O)O)n2)s1 [Example 4, 2′-(Acetylamino)-4′-methyl-4,5′-bi-1,3-thiazole-2-carboxylic acid]
3 | 1420 | CCOC(=O)c1nc(-c2sc(Nc3cnccn3)nc2C)cs1 [Example 54, Ethyl 4′-methyl-2′-(pyrazin-2-ylamino)-4,5′-bi-1,3-thiazole-2-carboxylate]
4 | 795 | COCCNC(=O)Nc1nc(C)c(-c2csc(C(=O)N3CCOCC3)n2)s1 [Example 36, N-(2-methoxyethyl)-N′-[4′-methyl-2-(morpholin-4-ylcarbonyl)-4,5′-bi-1,3-thiazol-2′-yl]urea]
5 | 1540 | CC(=O)Nc1nc(C)c(-c2csc(C(=O)Nc3cccc(-c4nnc(N)s4)c3)n2)s1 [Example 25, 2′-(acetylamino)-N-[3-(5-amino-1,3,4-thiadiazol-2-yl)phenyl]-4′-methyl-4,5′-bi-1,3-thiazole-2-carboxamide]
6 | 355 | CC(=O)Nc1nc(C)c(-c2csc(C(=O)NCC3CCCO3)n2)s1 (stereo not shown) [Example 6, 2′-(Acetylamino)-4′-methyl-N-(tetrahydrofuran-2-ylmethyl)-4,5′-bi-1,3-thiazole-2-carboxamide]
7 | 601 | CC(=O)Nc1nc(C)c(-c2csc(C(=O)N3CCN(C)CC3)n2)s1 [Example 9, N-{4′-methyl-2-[(4-methylpiperazin-1-yl)carbonyl]-4,5′-bi-1,3-thiazol-2′-yl}acetamide]
8 | 2200 | CC(=O)Nc1nc(C)c(-c2csc(C(=O)NCCCN(C)C)n2)s1 [Example 10, 2′-(Acetylamino)-N-[3-(dimethylamino)propyl]-4′-methyl-4,5′-bi-1,3-thiazole-2-carboxamide]
9 | 870 | CCOC(=O)c1nc(-c2sc(NC(C)=O)nc2C)cs1 [Example 1, Ethyl 2′-(acetylamino)-4′-methyl-4,5′-bi-1,3-thiazole-2-carboxylate]

Row | SMILES | IC50 [nM]
10 | CC(=O)Nc1nc(C)c(-c2csc(C(=O)Nc3nnn[nH]3)n2)s1 [Example 13, 2′-(acetylamino)-4′-methyl-N-1H-tetrazol-5-yl-4,5′-bi-1,3-thiazole-2-carboxamide] | 13
11 | CC(=O)Nc1nc(C)c(-c2csc(Cc3nnn[nH]3)n2)s1 [Example 23, N-[4′-methyl-2-(2H-tetrazol-5-ylmethyl)-4,5′-bi-1,3-thiazol-2′-yl]acetamide] | 328

Each compound was assayed on Akt/PKB phosphorylation in Raw 264-7 macrophages (assay: Cell based ELISA to monitor PI3K inhibition: Akt/PKB phosphorylation in macrophages after stimulation with Complement 5a). Settings: Mus musculus, RAW264.7, 50 nM Complement 5a stimulation, phospho Serine 473 Akt, read-out: Cell Assay (P-Akt, Elisa) IC50.
Description: b) Cell Based ELISA to Monitor PI3K Inhibition:
The efficacy of compounds of the invention in inhibiting the PI3K induced Akt/PKB phosphorylation may be tested in the following cell based assay.
Measurement of Akt/PKB phosphorylation in macrophages after stimulation with Complement 5a: Raw 264: Raw 264-7 macrophages (cultured in DMEM-F12 medium containing 10% Fetal Calf serum and antibiotics) are plated at 20'000 cells/well in a 96 MTP 24 h before cell stimulation. Prior to the stimulation with 50 nM of Complement 5a during 5 minutes, Cells are serum starved for 2 h, and pretreated with inhibitors for 20 minutes. After stimulation cells are fixed in 4% formaldehyde for 20 minutes and washed 3 times in PBS containing 1% Triton X-100 (PBS/Triton). […] Next, phosphorylated Akt/PKB is detected by an overnight incubation at 4° C. with primary antibody (anti phospho Serine 473 Akt IHC, Cell Signaling) diluted 800-fold in PBS/Triton, containing 5% bovine serum albumin (BSA). After 3 washes in PBS/Triton, cells are incubated for 60 minutes with a peroxidase conjugated goat-anti-rabbit secondary antibody ( 1/400 dilution in PBS/Triton, containing 5% BSA), washed 3 times in PBS/Triton, and 2 times in PBS and further incubated in 100 μl of luminescent substrate reagent solution (Pierce) for 2 minutes, followed by the reading (1 s/well). […]

Row | IC50 [nM] | SMILES
12 | 910 | CC(=O)Nc1nc(C)c(-c2csc(C(=O)N3CCOCC3)n2)s1 [Example 8, N-[4′-methyl-2-(morpholin-4-ylcarbonyl)-4,5′-bi-1,3-thiazol-2′-yl]acetamide]
13 | 710 | C=CCNC(=O)c1nc(-c2sc(NC(C)=O)nc2C)cs1 [Example 2, 2′-(Acetylamino)-N-allyl-4′-methyl-4,5′-bi-1,3-thiazole-2-carboxamide]
